Test results reported in PMC8249445, “Complex effects of macrolide venturicidins on bacterial F-ATPases likely contribute to their action as antibiotic adjuvants” (Scientific Reports, 2021).

Legend:
[1] = biological target: T1, FOF1-ATPase of WT E. coli membranes (Escherichia coli, UniProt P68699); assay: biochemical; assay type: biochemical; conditions: for ATPase rate, Early / ATPase rate, Late / Late/early ratio: 10 µM ventA final; for Ki: VentA at half-max. inhibition (Ki), early inhibition
T1 construct: To express haploid levels of EcFOF1 containing WT-ε or ε88-stop; expressed in transfected cells; host or cells: E. coli strain XH1 (chromosomal atpC deletion) carrying pMBε1; inverted membrane vesicles
Description: ATP hydrolysis is enzyme-coupled to conversion of NADH to NAD^+, which results in decreased light absorbance; thus, a larger rate of ATP hydrolysis is indicated by a steeper downward slope. The system also rapidly regenerates ATP, minimizing the concentration of product ADP during the assay. Unless noted, assays were preincubated to establish a steady state hydrolysis rate (see “Methods”) before the ‘zero’ point of measurements.
Plasmid pXH302S, which encodes the WT atpC gene and expresses near haploid levels of the ε subunit, was subjected to fusion PCR mutagenesis to construct plasmid pMBε1, with an N-terminal affinity tag ([…]) added prior to the initial Met residue. To express the ε88-stop subunit, an AfeI-ScaI restriction fragment of WT pMBε1 was replaced by the analogous fragment from pH6ε88-stop[46]. To express haploid levels of EcFOF1 containing WT-ε or ε88-stop, the appropriate version of pMBε1 was transformed into E. coli strain XH1, which has a chromosomal deletion of the atpC gene for ε[54]. For these transformed strains, cultures were grown and inverted membrane vesicles (IMV) were prepared according to [55]. WT ε, with the same N-terminal His6-tag, was over-expressed from pH6ε and purified as described.
ATP hydrolysis by membrane vesicles was assayed spectrophotometrically[57] at 30 °C using an open-chamber, diode array spectrophotometer (Hewlett Packard 8453 UV–Vis) as described in[29]. The assay medium (1 ml per assay) contained 20 mM Mops/Tris, pH 8.0, 0.2 mM EDTA, 10 mM CH3COOK, 1 mM ATP, 3.2 mM Mg(CH3COO)2, 1 mM phosphoenolpyruvate, at least 0.3 mM NADH, 0.1 mg/ml pyruvate kinase, 0.1 mg/ml lactate dehydrogenase, 5 mM KCN, and 5 μM carbonyl cyanide 4-(trifluoromethoxy)-phenylhydrazone. […] To avoid interference of this increase with the changes of ATPase activity induced by venturicidins, unless indicated otherwise, measurement of ATPase activities were started 60 min after addition of membranes to the complete assay medium. […] To keep absorbance between 1.5 and 2 units after the 60-min preincubation, up to 0.2 mM additional NADH was added to the assay medium. In figures displaying activity traces, some traces are shifted vertically for visual clarity.

[2] = test system: FOF1 in membranes from P. denitrificans; parameters: method as in PMID 10672007; conditions: cited from earlier work
[3] = preincubation +MgATP, no ventA, selenite
[4] = preincubation No MgATP, +ventA (trace 2), 40 mM selenite
[5] = WT + 6 μM azide (Fig. 2C), best fit of early rates
[6] = WT + 38.5 mM selenite (Fig. 2B), best fit of early rates

CCC(=O)C(C)C(O)C(C)CC(C)C1OC(=O)CC2(O)CC=C(C)C(O2)C(C)=CCCCC(OC2CC(OC(N)=O)C(O)C(C)O2)C=CC(C)CC1C (stereo not shown) [ventA, venturicidin A]
Late rate (last 3 min of assay) ([1]; 9.5 μM ventA, 38.5 mM selenite (Fig. 5A #3)): 2.7 U/mg | Rate during 100 s immediately before adding ε ([1]; 9.5 μM ventA, 38.5 mM selenite (Fig. 5A trace #4)): 2.5 U/mg | ATPase rate, Early [1, 3]: 1.27 U/mg | ATPase rate, Late [1, 3]: 2.97 U/mg | Late/early ratio [1, 3]: 2.34 | ATPase rate, Early [1, 4]: 1.22 U/mg | ATPase rate, Late [1, 4]: 2.93 U/mg | Late/early ratio [1, 4]: 2.40 | Decrease of initial ATPase rate ([1]; 30 min preincubation with 10 μM ventA without ATP, selenite present): about 40% | Ki ([1]; WT + 6 μM azide (Fig. 2C)): 1700 nM | Ki ([1]; WT + 38.5 mM selenite (Fig. 2B)): 230 nM | Ki ([1]; WT, alone (Fig. 2A)): 700 nM | ATPase at saturating ventA (y0) [1, 5]: 36% (± 4) | VentA-sensitive ATPase (y1) [1, 5]: 106% (± 5) | ATPase at saturating ventA (y0) [1, 6]: 53% (± 1) | VentA-sensitive ATPase (y1) [1, 6]: 46% (± 2) | Sensitivity to immediate inhibition, selenite vs azide ([1]; WT EcFOF1, MgADP-inhibited state minimized by selenite vs increased by azide): ~ sevenfold | Increase of early Ki value by azide ([1]; WT, 6 µM azide vs none): 2.4 fold | ATPase at saturating ventA (y0) ([1]; WT, alone (Fig. 2A), best fit of early rates): 47% (± 2) | VentA-sensitive ATPase (y1) ([1]; WT, alone (Fig. 2A), best fit of early rates (within 1 min after adding ventA)): 80% (± 5) | Reduction of Ki for early inhibition by selenite ([1]; WT, with vs without selenite): threefold | Immediate increase in ATPase rate, first minute post-addition ([1]; lower ventA concentration (Fig. 1, trace 2), no effector): 11% | inhibition at 10 µM ([1]; read-out: Additional time-dependent inhibition): ~25% | ATPase activity during the last 3 min of assays ([1]; ventA added after 0.1 mM DCCD (trace 3, 15 μM ventA), no selenite): 0.49 (± 0.06) U/mg | ATPase activity during the last 3 min of assays ([1]; ventA added before 0.1 mM DCCD (trace 2, 10 μM ventA), no selenite): 0.53 (± 0.05) U/mg | ATPase activity during the last 3 min of assays ([1]; ventA after 0.1 mM DCCD (trace 3, 15 μM ventA), 38.5 mM selenite): 2.84 U/mg | ATPase activity during the last 3 min of assays ([1]; ventA before 0.1 mM DCCD (trace 2, 10 μM ventA), 38.5 mM selenite): 2.93 U/mg | Sensitivity of ATPase to ventA inhibition, sulfite-activated vs PMF-activated FOF1 [2]: ~ threefold
